Where a name gives a salt, the structure may show the parent alone. Read-outs that look alike come from different tables or passages of the source.
Columns and labels:
HuTu 80 = experiment: MTT cytotoxicity, HuTu 80; type: cell-based, human; conditions: for IC50: MTT, 48 h incubation, read-out: IC50 (µM) Cancer Cell Lines HuTu 80; for Selectivity index (SI) = IC50(normal)/IC50(tumoral): Chang liver vs HuTu 80
Source text: (§1) Cells and Materials. For the experiments, we used tumor cell cultures M-HeLa clone 11 (epithelioid carcinoma of the cervix, subline HeLa, clone M-HeLa), HuTu 80, human duodenal adenocarcinoma, Hep-2, human epithelial cells, SH-SY5Y, human neuroblast-like cells, A549, human lung adenocarcinoma, PA-1, human ovarian teratocarcinoma and MCF-7, a human mammary ductal adenocarcinoma from the collection of the Institute of Cytology, Russian Academy of Sciences (St. Petersburg, Russia); human liver cells (Chang liver) were from the collection and the Research Institute of Virology of the Russian Academy of Medical Sciences (Moscow, Russia).
(§2) MTT Assay. The cytotoxic effect on cells was determined using the colorimetric method of cell proliferation—the MTT test. NADP-H-dependent cellular oxidoreductase enzymes can, under certain conditions, reflect the number of viable cells. These enzymes reduce the tetrazolium dye (MTT) 3-(4,5-dimethylthiazol-2-yl)-2,5-diphenyl-tetrazolium bromide to insoluble blue-violet formazan, which crystallizes inside the cell. The amount of formed formazan is proportional to the number of cells with active metabolism. Cells were seeded on a 96-well Nunc plate at a concentration of 5 × 10^3 cells per well in a volume of 100 μL of medium and cultured in a CO2 incubator at 37 °C until a monolayer was formed. After the nutrient medium was removed, 100 µL of the test drug solutions at the given dilutions were added to the wells, which were prepared directly in the nutrient medium with the addition of 5% DMSO to improve solubility. After 48 h of incubation of the cells with the tested compounds, the nutrient medium was removed from the plates and 100 µL of the nutrient medium without serum with MTT at a concentration of 0.5 mg/mL was added and incubated for 4 h at 37 °C. Formazan crystals were added 100 µL of DMSO to each well. Optical density was recorded at 540 nm on an Invitrologic microplate reader (Novosibirsk, Russia). The experiments for all compounds were repeated three times.
(§3) Statistical analysis. The IC50 values were calculated using the MLA–Quest Graph™ IC50 Calculator (AAT Bioquest, Inc., Sunnyvale, CA, USA), 14 February 2022. Statistical analysis was performed with the Mann–Whitney test (p < 0.05). Tabular and graphical data contain averages and standard error.

M-HeLa = experiment: MTT cytotoxicity, M-HeLa; type: cell-based, human; conditions: MTT, 48 h incubation, read-out: IC50 (µM) Cancer Cell Lines M-HeLa
Source text: as §1, §2, §3

Chang Liver = experiment: MTT cytotoxicity, normal Chang liver cells; type: cell-based, human; conditions: 48 h incubation, read-out: IC50 (µM) Normal Cell Line Chang Liver
Source text: as §1, §2, §3

Structure (SMILES)	melting point	IC50 (HuTu 80; Homo sapiens, HuTu80, 48 h)	IC50 (M-HeLa; Homo sapiens, M-HeLa)	IC50 (Chang Liver; Homo sapiens, Chang liver)	Selectivity index (SI) = IC50(normal)/IC50(tumoral) (HuTu 80)	IC50 (HuTu 80; Homo sapiens, HuTu80)	IC50 (HuTu 80)	IC50 (M-HeLa)	IC50 (Chang Liver)
O=C(NCC(c1c(O)c2ccccc2oc1=O)c1c(O)c2ccccc2oc1=O)c1nc2ccccc2[nH]1	263 to 265 °C	–	–	–	–	–	–	–	–
O=C(CCl)NCC(c1c(O)c2ccccc2oc1=O)c1c(O)c2ccccc2oc1=O	187 to 188 °C	–	–	–	–	–	–	–	–
C[P+](CC(=O)NCCC1c2c(ccc3ccccc23)Oc2ccc3ccccc3c21)(c1ccccc1)c1ccccc1 (as salt: salt) [Compound 6b]	161 to 162 °C	–	–	–	–	–	–	–	–
COC(CNC(=O)CCl)OC [Compound 2a]	–	> 100 µM	> 100 µM	> 100 µM	–	–	–	–	–
CCOC(CCNC(=O)CCl)OCC [Compound 2b]	–	> 100 µM	> 100 µM	> 100 µM	–	–	–	–	–
O=C(CCl)NCC1c2c(ccc3ccccc23)Oc2ccc3ccccc3c21 [Compound 3a]	200 to 203 °C	> 100 µM	> 100 µM	> 100 µM	–	–	–	–	–
O=C(CCl)NCC1c2c(ccc3ccc(O)cc23)Oc2ccc3ccc(O)cc3c21 [Compound 3b]	> 250 °C	53.9 ± 4.3 µM	96.4 ± 8.4 µM	78.2 ± 6.8 µM	–	–	–	–	–
O=C(CCl)NCCC1c2c(ccc3ccccc23)Oc2ccc3ccccc3c21 [Compound 3c]	147 to 149 °C	29.3 ± 2.1 µM	49.6 ± 3.9 µM	> 100 µM	–	–	–	–	–
O=C(CCl)NCCC1c2c(ccc3ccc(O)cc23)Oc2ccc3ccc(O)cc3c21 [Compound 3d]	137 to 139 °C	18.1 ± 1.4 µM	38.4 ± 2.7 µM	54.8 ± 4.4 µM	3	–	–	–	–
O=C(CCl)NCCCC1c2c(ccc3ccccc23)Oc2ccc3ccccc3c21 [Compound 3e]	164 to 165 °C	> 100 µM	56.6 ± 4.4 µM	73.3 ± 6.4 µM	–	–	–	–	–
O=C(CCl)NCCCC1c2c(ccc3ccc(O)cc23)Oc2ccc3ccc(O)cc3c21 [Compound 3f]	180 °C	–	–	–	–	–	–	–	–
O=C(CCl)NCC(c1cc2c(cc1O)OCO2)c1cc2c(cc1O)OCO2 [Compound 4a]	180 to 182 °C	> 100 µM	> 100 µM	> 100 µM	–	–	–	–	–
O=C(CCl)NCCC(c1cc2c(cc1O)OCO2)c1cc2c(cc1O)OCO2 [Compound 4b]	166 to 168 °C	26.2 ± 1.7 µM	84.6 ± 7.5 µM	> 100 µM	–	–	–	–	–
O=C(CCl)NCCCC(c1cc2c(cc1O)OCO2)c1cc2c(cc1O)OCO2 [Compound 4c]	189 to 191 °C	> 100 µM	> 100 µM	> 100 µM	–	–	–	–	–
O=C(CCl)NCCC(c1c(O)c2ccccc2oc1=O)c1c(O)c2ccccc2oc1=O [Compound 5b]	134 °C	–	65.3 ± 5.4 µM	68.1 ± 5.4 µM	–	52.1 ± 4.2 µM	–	–	–
C[P+](CC(=O)NCCC1c2c(ccc3ccccc23)Oc2ccc3ccccc3c21)(c1ccccc1)c1ccccc1 [Compound 6b]	–	64.3 ± 5.2 µM	28.4 ± 1.8 µM	> 100 µM	–	–	–	–	–
O=C(C[P+](c1ccccc1)(c1ccccc1)c1ccccc1)NCCCC1c2c(ccc3ccccc23)Oc2ccc3ccccc3c21 [Compound 6c]	204 to 205 °C	7.3 ± 0.6 µM	26.6 ± 1.9 µM	33.4 ± 2.8 µM	4.6	–	–	–	–
C[P+](CC(=O)NCCCC1c2c(ccc3ccccc23)Oc2ccc3ccccc3c21)(c1ccccc1)c1ccccc1 [Compound 6d]	199 to 200 °C	18.5 ± 1.5 µM	53.2 ± 4.6 µM	56.2 ± 4.7 µM	3	–	–	–	–
O=C(C[P+](c1ccccc1)(c1ccccc1)c1ccccc1)NCC(c1cc2c(cc1O)OCO2)c1cc2c(cc1O)OCO2 [Compound 7a]	178 to 181 °C	59.7 ± 4.6 µM	73.5 ± 6.2 µM	> 100 µM	–	–	–	–	–
O=C(C[P+](c1ccccc1)(c1ccccc1)c1ccccc1)NCCC(c1cc2c(cc1O)OCO2)c1cc2c(cc1O)OCO2 [Compound 7b]	> 250 °C	55.4 ± 4.5 µM	65.8 ± 5.8 µM	> 100 µM	–	–	–	–	–
O=C(C[n+]1ccccc1)NCCC1c2c(ccc3ccccc23)Oc2ccc3ccccc3c21.[Cl-] [Compound 8]	156 °C	58.4 ± 4.6 µM	85.2 ± 7.4 µM	100 ± 9.2 µM	–	–	–	–	–
O=C(C[n+]1ccccc1)NCC(c1cc2c(cc1O)OCO2)c1cc2c(cc1O)OCO2 [Compound 9a]	178 to 180 °C	> 100 µM	> 100 µM	> 100 µM	–	–	–	–	–
O=C(C[n+]1ccccc1)NCCC(c1cc2c(cc1O)OCO2)c1cc2c(cc1O)OCO2 [Compound 9b]	159 °C	> 100 µM	97.8 ± 8.2 µM	95.4 ± 8.7 µM	–	–	–	–	–
COC(CNC(=O)c1nc2ccccc2[nH]1)OC [Compound 10a]	–	–	–	–	–	–	> 100 µM	> 100 µM	> 100 µM
O=C(NCC1c2c(ccc3ccccc23)Oc2ccc3ccccc3c21)c1nc2ccccc2[nH]1 [Compound 11a]	216 °C	> 100 µM	> 100 µM	> 100 µM	–	–	–	–	–
O=C(NCC1c2c(ccc3ccc(O)cc23)Oc2ccc3ccc(O)cc3c21)c1nc2ccccc2[nH]1 [Compound 11b]	224 to 225 °C	11.5 ± 0.9 µM	94.3 ± 7.9 µM	53.1 ± 4.3 µM	–	–	–	–	–
O=C(NCC(c1cc2c(cc1O)OCO2)c1cc2c(cc1O)OCO2)c1nc2ccccc2[nH]1 [Compound 12a]	216 to 217 °C	–	–	–	–	–	–	–	–
Cc1cc(O)c(C(CCNC(=O)c2nc3ccccc3[nH]2)c2c(O)cc(C)oc2=O)c(=O)o1 [Compound 12c]	189 to 191 °C	–	–	–	–	–	–	–	–
COc1cccc2c1C(=O)c1c(O)c3c(c(O)c1C2=O)C[C@@](O)(C(=O)CO)C[C@@H]3O[C@H]1C[C@H](N)[C@H](O)[C@H](C)O1 [Doxorubicin, reference compound]	–	3 ± 0.2 µM	3 ± 0.2 µM	3 ± 0.1 µM	1	–	–	–	–
CNC(=O)c1cc(Oc2ccc(NC(=O)Nc3ccc(Cl)c(C(F)(F)F)c3)cc2)ccn1 [Sorafenib, reference compound]	–	5 ± 0.4 µM	35.6 ± 2.8 µM	35 ± 2.7 µM	7	–	–	–	–
